Reference: US20260285855A1, “HETEROARYL DERIVATIVES AS DDRS INHIBITORS” (CHIESI FARMACEUTICI S.P.A., priority 2023, published 2026)
Where two headings read alike, the source gives them in different places.

How the values were obtained:
[1] = target: T1, DDR1 (Homo sapiens, UniProt Q08345); test: LanthaScreen Europium Kinase Binding assay, DDR1
T1 construct: purchased Carna Biosciences
Procedure: (§1) DDR1 and DDR2 binding assays were performed using Life Technologies LanthaScreen™ Europium Kinase Binding assay. […] IC50 values were determined in GraphPad Prism 7.0 software, using 4 parameter model: log (inhibitor) vs. response. IC50 values were converted in Ki using the Cheng-Prusoff equation (Ki-IC50/(1+ [Tracer]/Kd).

[2] = target: T2, DDR2 (Homo sapiens, UniProt Q16832); test: LanthaScreen Europium Kinase Binding assay, DDR2
T2 construct: purchased Life Technologies
T2 sequence (Q16832 22-855): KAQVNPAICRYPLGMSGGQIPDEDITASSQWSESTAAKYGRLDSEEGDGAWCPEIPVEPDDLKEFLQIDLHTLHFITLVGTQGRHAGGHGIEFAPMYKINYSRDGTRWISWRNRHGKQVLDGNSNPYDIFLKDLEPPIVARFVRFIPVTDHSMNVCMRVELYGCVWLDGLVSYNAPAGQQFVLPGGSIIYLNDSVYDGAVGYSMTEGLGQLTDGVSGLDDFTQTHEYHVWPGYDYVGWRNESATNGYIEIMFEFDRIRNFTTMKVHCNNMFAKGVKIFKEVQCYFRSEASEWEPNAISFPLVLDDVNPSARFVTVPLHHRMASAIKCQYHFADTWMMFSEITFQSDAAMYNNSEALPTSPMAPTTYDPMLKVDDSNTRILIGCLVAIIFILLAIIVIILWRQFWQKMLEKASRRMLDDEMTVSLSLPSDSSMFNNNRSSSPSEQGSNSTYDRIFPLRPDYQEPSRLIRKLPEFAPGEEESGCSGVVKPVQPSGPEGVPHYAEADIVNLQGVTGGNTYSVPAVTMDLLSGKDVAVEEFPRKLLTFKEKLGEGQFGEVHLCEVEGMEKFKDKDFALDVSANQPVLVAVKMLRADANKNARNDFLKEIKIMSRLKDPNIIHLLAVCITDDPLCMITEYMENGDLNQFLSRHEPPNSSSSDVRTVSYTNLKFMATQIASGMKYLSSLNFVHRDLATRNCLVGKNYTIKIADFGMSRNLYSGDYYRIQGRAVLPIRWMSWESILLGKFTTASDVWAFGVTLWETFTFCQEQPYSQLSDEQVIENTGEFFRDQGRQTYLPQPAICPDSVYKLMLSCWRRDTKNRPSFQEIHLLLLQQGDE
Procedure: as §1

[3] = 5 nM DDR1, 20 nM Kinase Tracer 178, 1 h at rt, Ki from IC50 by Cheng-Prusoff, read-out: Ki DDR1
[4] = 5 nM DDR2, 10 nM Kinase Tracer 178, 1 h at rt, Ki from IC50 by Cheng-Prusoff, read-out: Ki DDR2
[5] = same binding assay, numeric values
[6] = same binding assay, numeric values, read-out: DDR1 Ki
[7] = same binding assay, numeric values, read-out: DDR2 Ki

T1 sequence (Q08345 19-913): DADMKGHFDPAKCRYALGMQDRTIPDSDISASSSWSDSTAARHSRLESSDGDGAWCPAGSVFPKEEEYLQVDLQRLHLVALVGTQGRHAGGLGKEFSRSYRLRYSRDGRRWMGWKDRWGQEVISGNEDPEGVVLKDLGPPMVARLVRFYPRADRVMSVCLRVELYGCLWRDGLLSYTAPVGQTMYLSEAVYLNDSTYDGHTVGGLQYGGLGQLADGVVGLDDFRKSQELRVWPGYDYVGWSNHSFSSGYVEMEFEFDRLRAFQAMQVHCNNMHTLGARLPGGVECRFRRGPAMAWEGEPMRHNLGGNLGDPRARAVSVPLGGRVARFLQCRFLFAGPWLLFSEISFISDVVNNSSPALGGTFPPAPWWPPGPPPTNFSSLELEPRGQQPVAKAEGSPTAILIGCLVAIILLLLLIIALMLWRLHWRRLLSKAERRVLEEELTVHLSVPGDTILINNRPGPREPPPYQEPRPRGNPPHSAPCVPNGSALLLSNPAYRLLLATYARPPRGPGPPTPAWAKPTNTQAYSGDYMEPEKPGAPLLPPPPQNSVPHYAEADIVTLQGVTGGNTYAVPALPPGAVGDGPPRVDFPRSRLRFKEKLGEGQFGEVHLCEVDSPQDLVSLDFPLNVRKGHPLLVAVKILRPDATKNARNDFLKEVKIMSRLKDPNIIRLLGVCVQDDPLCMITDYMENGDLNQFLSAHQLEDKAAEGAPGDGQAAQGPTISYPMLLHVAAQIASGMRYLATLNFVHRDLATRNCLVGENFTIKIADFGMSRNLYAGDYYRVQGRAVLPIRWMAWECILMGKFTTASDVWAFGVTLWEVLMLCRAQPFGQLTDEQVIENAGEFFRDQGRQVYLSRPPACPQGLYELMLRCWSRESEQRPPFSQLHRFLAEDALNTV

SMILES: CN(C(=O)Nc1cccc(C(F)(F)F)c1)C1CC2(C1)CN(C(=O)c1cnn3ccncc13)C2 [Example 25, 1-methyl-1-(2-(pyrazolo[1,5-a]pyrazine-3-carbonyl)-2-azaspiro[3.3]heptan-6-yl)-3-(3-(trifluoromethyl)phenyl)urea]
- Ki [1, 3]: 5 to 25 nM
- Ki [2, 4]: 25 to 100 nM

SMILES: CCOc1ccc(C(F)(F)F)cc1NC(=O)N(C)C1CC2(C1)CN(C(=O)c1cnn3ccn(C)c13)C2 [Example 288, 3-(2-ethoxy-5-(trifluoromethyl)phenyl)-1-methyl-1-(2-(1-methyl-1H-imidazo[1,2-b]pyrazole-7-carbonyl)-2-azaspiro[3.3]heptan-6-yl)urea]
- Ki [1, 3]: < 5 nM
- Ki [2, 4]: 5 to 25 nM

SMILES: COc1ccc(OC(F)(F)F)cc1NC(=O)NC1CC2(C1)CN(C(=O)c1cnn3cccnc13)C2 [Example 55, 1-(2-methoxy-5-(trifluoromethoxy)phenyl)-3-(2-(pyrazolo[1,5-a]pyrimidine-3-carbonyl)-2-azaspiro[3.3]heptan-6-yl)urea]
- Ki [1, 3]: < 5 nM
- Ki [2, 4]: 5 to 25 nM

SMILES: O=C(Cc1cccc(C(F)(F)F)c1)NC1CC2(C1)CN(C(=O)c1cnn3ccncc13)C2 [Example C2, N-(2-(pyrazolo[1,5-a]pyrazine-3-carbonyl)-2-azaspiro[3.3]heptan-6-yl)-2-(3-(trifluoromethyl)phenyl)acetamide, reference compound]
- DDR1 Ki (nM) [1, 5]: did not show a binding affinity
- Ki [1, 6]: > 500 nM
- DDR2 Ki (nM) [2, 5]: did not show a binding affinity
- Ki [2, 7]: > 500 nM

SMILES: N#Cc1cc(NC(=O)NC2CC3(C2)CN(C(=O)c2cnn4ccncc24)C3)cc(C(F)(F)F)c1 [Example 19, 1-(3-cyano-5-(trifluoromethyl)phenyl)-3-(2-(pyrazolo[1,5-a]pyrazine-3-carbonyl)-2-azaspiro[3.3]heptan-6-yl)urea]
- Ki [1, 3]: < 5 nM
- Ki [2, 4]: < 5 nM

SMILES: Cn1ccn2ncc(C(=O)N3CC4(CC(NC(=O)Nc5cncc(C(F)(F)F)c5)C4)C3)c12 [Example 37, 1-(2-(1-methyl-1H-imidazo[1,2-b]pyrazole-7-carbonyl)-2-azaspiro [3.3]heptan-6-yl)-3-(5-(trifluoromethyl)pyridin-3-yl)urea]
- Ki [1, 3]: < 5 nM
- Ki [2, 4]: 5 to 25 nM

SMILES: CN(C(=O)Nc1cncc(C(F)(F)F)c1)C1CC2(C1)CN(C(=O)c1ncnc3[nH]ccc13)C2 [Example 206, 1-(2-(7H-pyrrolo[2,3-d]pyrimidine-4-carbonyl)-2-azaspiro[3.3]heptan-6-yl)-1-methyl-3-(5-(trifluoromethyl)pyridin-3-yl)urea]
- Ki [1, 3]: < 5 nM
- Ki [2, 4]: 5 to 25 nM

SMILES: Cc1cc(NC(=O)N(C)C2CC3(C2)CN(C(=O)c2ncnc4[nH]ccc24)C3)cc(C(F)(F)F)c1 [Example 268, 1-(2-(7H-pyrrolo[2,3-d]pyrimidine-4-carbonyl)-2-azaspiro[3.3]heptan-6-yl)-1-methyl-3-(3-methyl-5-(trifluoromethyl)phenyl)urea]
- Ki [1, 3]: < 5 nM
- Ki [2, 4]: 5 to 25 nM

SMILES: Cn1ccn2ncc(C(=O)N3CC4(CC(OC(=O)Nc5cc(OC(F)(F)F)ccn5)C4)C3)c12 [Example 294, 2-(1-methyl-1H-imidazo[1,2-b]pyrazole-7-carbonyl)-2-azaspiro[3.3]heptan-6-yl(4-(trifluoromethoxy)pyridin-2-yl)carbamate]
- Ki [1, 3]: < 5 nM
- Ki [2, 4]: < 5 nM

SMILES: O=C(NC1CC2(C1)CN(C(=O)c1cnn3ccncc13)C2)c1cccc(C(F)(F)F)c1 [Example C1, N-(2-(pyrazolo[1,5-a]pyrazine-3-carbonyl)-2-azaspiro[3.3]heptan-6-yl)-3-(trifluoromethyl)benzamide, reference compound]
- DDR1 Ki (nM) [1, 5]: did not show a binding affinity
- Ki [1, 6]: > 500 nM
- DDR2 Ki (nM) [2, 5]: did not show a binding affinity
- Ki [2, 7]: > 500 nM

SMILES: Nc1ccn2ncc(C(=O)N3CC4(CC(NC(=O)Nc5cccc(C(F)(F)F)c5)C4)C3)c2c1 [Example 184, 1-(2-(5-aminopyrazolo[1,5-a]pyridine-3-carbonyl)-2-azaspiro[3.3]heptan-6-yl)-3-(3-(trifluoromethyl)phenyl)urea]
- Ki [1, 3]: < 5 nM
- Ki [2, 4]: < 5 nM

SMILES: CN(C(=O)Nc1cncc(C(F)(F)F)c1)C1CC2(C1)CN(C(=O)c1cnn3cc(-c4cccnc4)ccc13)C2 [Example 230, 1-methyl-1-(2-(6-(pyridin-3-yl)pyrazolo[1,5-a]pyridine-3-carbonyl)-2-azaspiro[3.3]heptan-6-yl)-3-(5-(trifluoromethyl)pyridin-3-yl)urea]
- Ki [1, 3]: < 5 nM
- Ki [2, 4]: 5 to 25 nM

SMILES: O=C(Nc1cc(CO)cc(C(F)(F)F)c1)NC1CC2(C1)CN(C(=O)c1ncnc3ccsc13)C2 [Example 110, 1-(3-(hydroxymethyl)-5-(trifluoromethyl)phenyl)-3-(2-(thieno[3,2-d]pyrimidine-4-carbonyl)-2-azaspiro[3.3]heptan-6-yl)urea]
- Ki [1, 3]: < 5 nM
- Ki [2, 4]: < 5 nM

SMILES: O=C(Nc1cccc(C(F)(F)F)c1)NC1CC2(C1)CN(Cc1cnc3cnccn13)C2 [Example 11, 1-(2-(imidazo[1,2-a]pyrazin-3-ylmethyl)-2-azaspiro[3.3]heptan-6-yl)-3-(3-(trifluoromethyl)phenyl)urea]
- Ki [1, 3]: 5 to 25 nM
- Ki [2, 4]: 5 to 25 nM

SMILES: CN(C(=O)Nc1cc(OC(F)(F)F)ccn1)C1CC2(C1)CN(C(=O)c1ccnc3[nH]ncc13)C2 [Example 189, 1-(2-(1H-pyrazolo[3,4-b]pyridine-4-carbonyl)-2-azaspiro[3.3]heptan-6-yl)-1-methyl-3-(4-(trifluoromethoxy)pyridin-2-yl)urea]
- Ki [1, 3]: 5 to 25 nM
- Ki [2, 4]: 5 to 25 nM

SMILES: CN1CCN(c2ccn3ncc(C(=O)N4CC5(CC(NC(=O)Nc6cccc(C(F)(F)F)c6)C5)C4)c3c2)CC1 [Example 84, 1-(2-(5-(4-methylpiperazin-1-yl)pyrazolo[1,5-a]pyridine-3-carbonyl)-2-azaspiro[3.3]heptan-6-yl)-3-(3-(trifluoromethyl)phenyl)urea]
- Ki [1, 3]: < 5 nM
- Ki [2, 4]: 5 to 25 nM

SMILES: O=C(Nc1cc(C(F)F)ccn1)NC1CC2(C1)CN(C(=O)c1ncnc3ccsc13)C2 [Example 74, 1-(4-(difluoromethyl)pyridin-2-yl)-3-(2-(thieno[3,2-d]pyrimidine-4-carbonyl)-2-azaspiro[3.3]heptan-6-yl)urea]
- Ki [1, 3]: < 5 nM
- Ki [2, 4]: < 5 nM

SMILES: CN(C(=O)Nc1cc(OC(F)(F)F)ccn1)C1CC2(C1)CN(C(=O)c1cnn3ccn(C)c13)C2 [Example 105, 1-methyl-1-(2-(1-methyl-1H-imidazo[1,2-b]pyrazole-7-carbonyl)-2-azaspiro[3.3]heptan-6-yl)-3-(4-(trifluoromethoxy)pyridin-2-yl)urea]
- Ki [1, 3]: < 5 nM
- Ki [2, 4]: 5 to 25 nM

SMILES: Cc1ccc(-n2nc(C(C)(C)C)cc2NC(=O)NC2CC3(C2)CN(C(=O)c2cnn4ccsc24)C3)cc1 [Example 80, 1-(3-(tert-butyl)-1-(p-tolyl)-1H-pyrazol-5-yl)-3-(2-(pyrazolo[5,1-b]thiazole-7-carbonyl)-2-azaspiro[3.3]heptan-6-yl)urea]
- Ki [1, 3]: < 5 nM
- Ki [2, 4]: 5 to 25 nM

SMILES: O=C(Nc1cccc(C(F)(F)F)c1)NC1CC2(C1)CN(C(=O)c1ncnc3ccsc13)C2 [Example 79, 1-(2-(thieno[3,2-d]pyrimidine-4-carbonyl)-2-azaspiro[3.3]heptan-6-yl)-3-(3-(trifluoromethyl)phenyl)urea]
- Ki [1, 3]: < 5 nM
- Ki [2, 4]: < 5 nM

SMILES: COc1ccc(OC(F)(F)F)cc1NC(=O)NC1CC2(C1)CN(C(=O)c1cnn3ccc(N4CCN(C)CC4)cc13)C2 [Example 69, 1-(2-methoxy-5-(trifluoromethoxy)phenyl)-3-(2-(5-(4-methylpiperazin-1-yl)pyrazolo[1,5-a]pyridine-3-carbonyl)-2-azaspiro[3.3]heptan-6-yl)urea]
- Ki [1, 3]: < 5 nM
- Ki [2, 4]: 5 to 25 nM

SMILES: O=C(Nc1cccc(CC(F)(F)F)c1)NC1CC2(C1)CN(C(=O)c1ccnc3[nH]ncc13)C2 [Example 153, 1-(2-(1H-pyrazolo[3,4-b]pyridine-4-carbonyl)-2-azaspiro[3.3]heptan-6-yl)-3-(3-(2,2,2-trifluoroethyl)phenyl)urea]
- Ki [1, 3]: < 5 nM
- Ki [2, 4]: < 5 nM

SMILES: COc1ccc(OC(F)(F)F)cc1NC(=O)NC1CC2(C1)CN(C(=O)c1ccnc3ccsc13)C2 [Example 48, 1-(2-methoxy-5-(trifluoromethoxy)phenyl)-3-(2-(thieno[3,2-b]pyridine-7-carbonyl)-2-azaspiro[3.3]heptan-6-yl)urea]
- Ki [1, 3]: < 5 nM
- Ki [2, 4]: 5 to 25 nM
